Here are results for 8 compounds from patent US20190033294A1, “METHODS OF SCREENING DRUGS FOR CANCER TREATMENT USING CELLS GROWN ON A FIBER-INSPIRED SMART SCAFFOLD” (UNIVERSITY OF SOUTH FLORIDA, priority 2016, published 2019).

The test system of one assay is HT-29 cells. Kind of assay: Presto Blue cell viability, 2D monolayer. The settings on record: monolayer culture; nine drugs at 0.1-20 μM, 72 hours.
In a further assay the test system is HT-29 tumoroids. Kind of assay: CellTiter-Glo viability, tumoroids on 3D fibrous scaffold. The settings on record: scaffold culture; nine drugs at 0.1-20 μM, 72 hours.
The subject of another assay is MCF-7/dox cells. Kind of assay: Presto-blue cell viability, monolayer culture. To be noted: for potency in high throughput screening: NCI Oncology set, 4 point log-dose 0.1 to 100 μM, 72 hrs.
The subject of assay [1] is Second generation MCF-7 tumoroids. Kind of assay: Cell Titer Glo viability of second generation tumoroids. The class given is cell-based, human. To be noted: 48 hr treatment. On the procedure: (§1) MCF-7 and MCF-7/dox were allowed to form tumoroids on scaffold for 6 days following which they were exposed to Actinomycin D for 24 hrs. At the end of 24 hrs the tumoroids were dissociated and processed for either western blotting (A) or real-time RT-PCR (B). Sox2 protein and transcript levels were analyzed and normalized to HPRT (C) Second generation MCF-7 tumoroids were cultured in a 96 well plate for 6 days. Tumoroids were treated with increasing concentrations of Actinomycin D on day 4 in groups of 4 wells. After a 48 hr treatment, cell viability was assayed using Cell Titer Glo(Promega) on day 6. Viability was calculated as a percent of control untreated wells and graphed using Graph Pad Prism software. (D) Tumoroids were treated with Actinomycin D for 48 hr. Following treatment tumoroids were dissociated and cells were co-stained using FITC conjugated CD44 antibody and Alexa Fluor-647 conjugated CD24 antibody. CD44^highCD24^low stem-like populations in MCF7 tumoroids were assessed by flow cytometer. Data was collected using a BD FACS Canto 2 flow cytometer.

Another assay deals with BT474 cells. Kind of assay: Presto-blue cell viability, breast cancer cell panel. To be noted: read-out: BT474 (IC50); Table 1, validation of hits in breast cancer cell panel.
The next assay has as its system MCF-7 cells. Kind of assay: Presto-blue cell viability, monolayer culture. To be noted: for potency in high throughput screening: NCI Oncology set, 4 point log-dose 0.1 to 100 μM, 72 hrs.
The subject of the next assay is MCF-7/dox tumoroids. Briefly: Presto-blue cell viability, tumoroids on FiSS scaffold.
In a further assay the test system is Sox2 in MCF-7 tumoroids. Kind of assay: Sox2 expression in tumoroids after drug treatment (western blot / RT-PCR). The class given is cell-based, human. On the procedure: as §1
(§2) MCF-7 and MCF-7/dox cells were seeded as monolayer and 3D tumoroid cultures in 96 well plates. […] Collagenase was used to detach the cells from the plate/scaffold platform. The cell pellet was resuspended in RIPA buffer and vortexed for 30 min followed by centrifugation at 4° C. at 13000 rpm to collect the protein extract. Protein content was determined by using BCA method and followed for western blot procedure. Antibodies for Nanog, Oct 4a, Sox2, and GAPDH/HPRT were obtained from Cell Signaling.
(§3) To determine the effects of Actinomycin D on the Sox2 protein levels in both MCF-7 and MCF-7/dox cell lines, MCF7 wt and MCF7-dox cells were seeded as monolayer and 3D tumoroid cultures (both in controls and cobalt chloride (CoCl2) scaffold cultures) in 96 well plates. […] Collagenase was used to detach the cells from the plate/scaffold platform. The cell pellet was then dissolved in trizol and RNA was isolated. RT-PCR was performed using 2 step process namely 1) cDNA synthesis using DNAase-1 treated RNA and 2) PCR was performed using primers of the gene of interest. […] The decrease in Sox2 expression was 2 fold in both the cell lines tested when compared to the control untreated tumoroids (2.05 vs. 0.75 pixel density in MCF-7 and 1.05 vs. 0.5 pixel density in MCF-7/dox) (FIG. 8B). […] Actinomycin D targets and down-regulates the expression of Sox2 resulting in depletion of stem-like cell population, which hampers the breast cancer cell's ability to initiate spheroids.

Assay [2] concerns Sox2 in MCF-7/dox tumoroids. The description is as above. In kind it is cell-based, human. On the procedure:
as §1, §2, §3

The next assay has as its system MDA-MB-231 cells. Kind of assay: Presto-blue cell viability, breast cancer cell panel. The settings on record: read-out: MDA-MB-231 (IC50); Table 1, validation of hits in breast cancer cell panel.
Another assay relates to MCF-7 tumoroids. Briefly: Presto-blue cell viability, tumoroids on FiSS scaffold.
Assay [3] concerns CD44highCD24low cells in MCF-7 tumoroids. Briefly: Flow cytometry of CD44highCD24low stem-like population in tumoroids. To be noted: 48 hr treatment, compared to untreated controls. The class given is cell-based, human. On the procedure:
as §1
To further investigate the potential of the FiSS for use in cancer drug discovery by characterizing the BCSCs within the tumoroids, MCF-7 cells were seeded onto scaffolds in 6 well plates at 240,000 cells per well. Cells were cultured for 6 days in RPMI media to form primary tumoroids. […]

[4] abbreviates: read-out: MCF7-DOX (IC50), Table 1, validation of hits in breast cancer cell panel.
[5] abbreviates: read-out: MCF7-WT (IC50), Table 1, validation of hits in breast cancer cell panel.

Structures can show the parent of a compound that is named as a salt. Where two headings read alike, the source gives them in different places. Starred links: 1 amine or outer side, 2 acyl side, 3 side chain; linkers in the order of their positions; H or OH if unused. Positions of bridges follow the written chain, without caps; N, C: chain ends. Non-standard residues stand in square brackets, D forms with d. Residues, ends and D or L forms follow the SMILES beside them. Chains are numbered I, II in the order given. Actinocin(9to1) = Cc1c2oc3c(C)ccc(C(=O)[*:1])c3nc-2c(C(=O)[*:2])c(N)c1=O; NMeV = CN[C@H](C(=O)O)C(C)C; Sar = CNCC(=O)O

Description for BT474 cells: (§4) All different cell lines were cultured either in regular 96 wells plate without scaffold (served as monolayer) and with FiSS (scaffold culture) in complete medium. For scaffold culture, 75% medium was carefully removed and replaced with 150 μl of fresh medium every alternate day. After five/six days of scaffold culture, cells were stained with NucBlue (Fisher Scientific) to check if tumoroids had formed. Drugs were added in triplicates with varying concentrations. The cells were incubated for 72 hrs in a humidified atmosphere under 5% CO2 at 37° C., then cell viability was measured using Presto-blue (Fisher Scientific).
Description for HT-29 cells: HT-29 cells were cultured in 2D monolayer for 24 hours. After 24 hours, the nine FDA-approved anticancer drugs were individually added to the cells at concentrations of 0.1, 1, 10, and 20 μM, and the cells were incubated for 72 hours, at which point viability of the cells was quantitated using Presto Blue assay (Life Technologies) according to the manufacturer's protocol. Raw fluorescence values of the treated groups were normalized to the average of the control and graphed in GraphPad Prism.
HT-29 cells were cultured in 2D monolayer for 24 hours. After 24 hours, the nine FDA-approved anticancer drugs were individually added to the cells at concentrations of 0.1, 1, 10, and 20 μM, and the cells were incubated for 72 hours, at which point viability of the cells was quantitated using Presto Blue assay (Life Technologies) according to the manufacturer's protocol. Raw fluorescence values of the treated groups were normalized to the average of the untreated controls and graphed in GraphPad Prism.
HT-29 cells were either grown in the standard 2-dimensional (2D) monolayer culture or in a 3-dimensional (3D) culture system using a novel fibrous scaffold. […] The monolayer cells and the 3D tumoroids were independently treated with increasing concentrations of nine FDA approved anti-cancer drugs. After 72 hours post-treatment a Presto Blue Cell Viability Assay (for monolayer) and CellTiter-Glo Viability Assay (for tumoroids) were used to quantitate the drug-induced cell death. The drug treated viability readings were normalized to the viability readings from untreated control. The percent viability was used to calculate the IC50 values of all the nine drugs in HT-29 cells.
Description for HT-29 tumoroids: HT-29 cells were cultured in the 3D fibrous scaffold from day 1 to day 7, at which point the nine FDA-approved anticancer drugs were individually added to the cells at concentrations of 0.1, 1, 10, and 20 μM. The cells were incubated for an additional 72 hours, at which point viability of the cells was quantitated using Celltiter-Glo assay (Promega) according to the manufacturer's protocol. Raw luminescence values of the treated groups were normalized to the average of the untreated controls and graphed in GraphPad Prism.
HT-29 cells were either grown in the standard 2-dimensional (2D) monolayer culture or in a 3-dimensional (3D) culture system using a novel fibrous scaffold. […] The monolayer cells and the 3D tumoroids were independently treated with increasing concentrations of nine FDA approved anti-cancer drugs. After 72 hours post-treatment a Presto Blue Cell Viability Assay (for monolayer) and CellTiter-Glo Viability Assay (for tumoroids) were used to quantitate the drug-induced cell death. The drug treated viability readings were normalized to the viability readings from untreated control.
Description for MCF-7 cells: (§5) (B) MCF-7 and MCF-7/dox cells were cultured on or on scaffold for 6 days and then cells were treated with increasing concentration of Doxorubicin. Forty-eight hrs post-treatment, cell viability was analyzed using presto-blue as per manufacturer's instructions. The % cell death was analyzed and the IC50 calculated using Graph Pad Prism. Data are represented as Mean±SEM of three independent experiments performed in triplicates (*p<0.05).
(§6) (A) MCF-7 and (B) MCF-7/dox cells were cultured on monolayer and then treated with increasing concentration of compounds from NCI Approved Oncology Drugs Set VII. Forty-eight hrs post-treatment, cell viability was analyzed using presto-blue as per manufacturer's instructions. The % cell death was analyzed and the IC50 calculated using Graph Pad Prism. Data are represented as Mean of experiments performed in triplicates.
(§7) To conduct a high through put screening for compounds that induce cell death in breast cancer, the FDA-approved Oncology Diversity set was obtained from NCI in 96 well plate format with each well containing 20 μl of 10 mM drug stock. All different cell lines were cultured either in regular 96 wells plate without scaffold (served as monolayer) and with FiSS (scaffold culture) in complete medium. […] Drugs were added in triplicates with varying concentrations. The cells were incubated for 72 hrs in a humidified atmosphere under 5% CO2 at 37° C., then cell viability was measured using Presto-blue (Fisher Scientific). […] MCF-7 ad MCF-7/dox were used in a monolayer in a 96 well plate, and then treated with a NCI Oncology diversity set containing FDA-approved anti-cancer drugs. Each drug was used in a 4 point log-dose from 0.1 to 100 μM. Untreated cells were used as control and the cell death was estimated at the end of 72 hrs post-treatment.
Description for MCF-7/dox cells: as §5, §6, §7
Description for MDA-MB-231 cells: as §4

Regarding `Nc1nc2nc[nH]c2c(=S)[nH]1` [6-thioguanine], the “rank as inhibitor of HT-29 cell viability” value (“rank as inhibitor” for short) in the assay on HT-29 cells and in the assay with HT-29 tumoroids was “least potent inhibitors” each time.

Regarding `Cc1c2oc3c(C)ccc(C(=O)N[C@@H]4C(=O)N[C@H](C(C)C)C(=O)N5CCC[C@H]5C(=O)N(C)CC(=O)N(C)[C@@H](C(C)C)C(=O)O[C@@H]4C)c3nc-2c(C(=O)N[C@@H]2C(=O)N[C@H](C(C)C)C(=O)N3CCC[C@H]3C(=O)N(C)CC(=O)N(C)[C@@H](C(C)C)C(=O)O[C@@H]2C)c(N)c1=O` [Actinomycin D] (I: T[dV]P[Sar][NMeV] / II: T[dV]P[Sar][NMeV]; ester I:1-I:C, II:1-II:C; linker I:N-II:N via Actinocin(9to1)), the IC50 was 37 ± 21 nM in the assay on MCF-7/dox cells (MCF-7/dox monolayer, 48 hrs post-treatment, mean±SEM); 50 ± 18 nM in the assay with MCF-7/dox cells (setting [4]); 29 nM in assay [1]; 240 ± 30 nM in the assay on BT474 cells; 70 ± 6 nM in the assay on MCF-7 cells (MCF-7 monolayer, 48 hrs post-treatment, mean±SEM); 50 ± 10 nM with MCF-7 cells (setting [5]). For the same compound, the IC50 in the assay on MCF-7/dox tumoroids (MCF-7/dox tumoroids on scaffold, hypoxic conditions (CoCl2)) amounted to 2240 ± 460 nM; in the assay with MCF-7/dox tumoroids (MCF-7/dox tumoroids on scaffold, normoxia, 6 days culture, 48 hrs treatment), 1660 ± 60 nM; in the assay with MDA-MB-231 cells it was 30 ± 10 nM; in the assay with MCF-7 tumoroids (MCF-7 tumoroids on scaffold, hypoxic conditions (CoCl2)), 1040 ± 70 nM; in the assay with MCF-7 tumoroids (MCF-7 tumoroids on scaffold, normoxia, 6 days culture, 48 hrs treatment), 780 ± 250 nM. Moreover, the “potency in high throughput screening” value in the assay with MCF-7/dox cells (MCF-7/dox monolayer) and in the assay on MCF-7 cells (MCF-7 monolayer) was “high potency” each time. For the same compound, the Sox2 expression with Sox2 in MCF-7 tumoroids (MCF-7 tumoroids treated 24 hrs at concentration based on IC50, untreated control 2.05) is on record as 0.75 pixel density; in assay [2] (MCF-7/dox tumoroids treated 24 hrs at concentration based on IC50, untreated control 1.05), 0.5 pixel density. Further, the “decrease in Sox2 expression” value (in the assay on Sox2 in MCF-7 tumoroids (MCF-7 tumoroids vs control untreated tumoroids); in assay [2] (MCF-7/dox tumoroids vs control untreated tumoroids)) was 2 fold throughout. Besides, the CD44highCD24low population entry in [3] is listed as “decreased”.

Turning to `CO[C@@]12[C@H](COC(N)=O)C3=C(C(=O)C(C)=C(N)C3=O)N1C[C@@H]1N[C@@H]12` [Mitomycin C], the “potency in high throughput screening” value in the assay on MCF-7/dox cells (MCF-7/dox monolayer) and in the assay on MCF-7 cells (MCF-7 monolayer) was “high potency” each time. Also, the IC50 came to 120 ± 10 nM in the assay on MCF-7/dox cells (setting [4]), 30 ± 4 nM in the assay with BT474 cells, 170 ± 60 nM in the assay on MCF-7 cells (setting [5]) and 30 ± 10 nM in the assay with MDA-MB-231 cells.

`Nc1ccn([C@@H]2O[C@H](CO)[C@@H](O)[C@@H]2O)c(=O)n1` [cytarabine]: the “rank as inhibitor” value in the assay with HT-29 cells and in the assay on HT-29 tumoroids was “least potent inhibitors” throughout.

Turning to `COc1cccc2c1C(=O)c1c(O)c3c(c(O)c1C2=O)C[C@@](O)(C(C)=O)C[C@@H]3O[C@H]1C[C@H](N)[C@H](O)[C@H](C)O1` [daunorubicin (hydrochloride)], the “rank as inhibitor” value in the assay with HT-29 cells and in the assay on HT-29 tumoroids was “most potent inhibitors” each time.

Consider `COc1cccc2c1C(=O)c1c(O)c3c(c(O)c1C2=O)C[C@@](O)(C(=O)CO)C[C@@H]3O[C@H]1C[C@H](N)[C@@H](O)[C@H](C)O1` [epirubicin (hydrochloride)], for which the “rank as inhibitor” value with HT-29 cells and in the assay with HT-29 tumoroids was “most potent inhibitors” in each case.

With `COc1cccc2c1C(=O)c1c(O)c3c(c(O)c1C2=O)C[C@@](O)(C(=O)CO)C[C@@H]3O[C@H]1C[C@H](N)[C@H](O)[C@H](C)O1` [doxorubicin], the IC50 worked out at 4400 ± 280 nM in the assay with MCF-7/dox cells (Homo sapiens, MCF7-DOX, 48 h); 180 ± 8 nM in the assay on MCF-7 cells (Homo sapiens, MCF7, 48 h); 23100 ± 5350 nM with MCF-7/dox tumoroids (Homo sapiens, MCF7-DOX); 1310 ± 270 nM with MCF-7 tumoroids (Homo sapiens, MCF7). The “fold more resistant than MCF-7” value in the assay with MCF-7/dox cells (MCF-7/dox vs MCF-7 in monolayer) is 24 fold.

Take `N.N.[Cl][Pt][Cl]` [cisplatin]: the “rank as inhibitor” value in the assay with HT-29 cells and with HT-29 tumoroids was “least potent inhibitors” throughout.
